Assays:
Assay in all cases: KINOMEscan competition binding
Conditions in all cases: compound 10.0 µM
MAPK8 (human) = MAPK8 (human) (UniProt P45983)
MUSK (human) = MUSK (human) (UniProt O15146)
ACVRL1 (human) = ACVRL1 (human) (UniProt P37023)
HIPK2 (human) = HIPK2 (human) (UniProt Q9H2X6)
MAP3K5 (human) = MAP3K5 (human) (UniProt Q99683)
MAPK9 (human) = MAPK9 (human) (UniProt P45984)
MAP2K4 (human) = MAP2K4 (human) (UniProt P45985)
CAMK1D (human) = CAMK1D (human) (UniProt Q8IU85)
ADCK3 (human) = ADCK3 (human) (UniProt Q8NI60)
PRKCQ (human) = PRKCQ (human) (UniProt Q04759)
TRPM6 (human) = TRPM6 (human) (UniProt Q9BX84)
PI4KB (human) = PI4KB (human) (UniProt Q9UBF8)
CLK4 (human) = CLK4 (human) (UniProt Q9HAZ1)
PHKG1 (human) = PHKG1 (human) (UniProt Q16816)
ZAP70 (human) = ZAP70 (human) (UniProt P43403)
STK17A (human) = STK17A (human) (UniProt Q9UEE5)
SRC (human) = SRC (human) (UniProt P12931)
TTK (human) = TTK (human) (UniProt P33981)
PKN2 (human) = PKN2 (human) (UniProt Q16513)
PRKX (human) = PRKX (human) (UniProt P51817)
PIK3C2B (human) = PIK3C2B (human) (UniProt O00750)
PRKCH (human) = PRKCH (human) (UniProt P24723)
ROCK1 (human) = ROCK1 (human) (UniProt Q13464)
GRK1 (human) = GRK1 (human) (UniProt Q15835)
BTK (human) = BTK (human) (UniProt Q06187)
RET (human) = RET (human) (UniProt P07949)
AKT2 (human) = AKT2 (human) (UniProt P31751)
CLK1 (human) = CLK1 (human) (UniProt P49759)
FRK (human) = FRK (human) (UniProt P42685)
CAMK2A (human) = CAMK2A (human) (UniProt Q9UQM7)
[1] = test system: MET (human), P08581 [M1250T]
CAMK4 (human) = CAMK4 (human) (UniProt Q16566)
PRPF4B (human) = PRPF4B (human) (UniProt Q13523)
MAPK10 (human) = MAPK10 (human) (UniProt P53779)
EPHB6 (human) = EPHB6 (human) (UniProt O15197)
TIE1 (human) = TIE1 (human) (UniProt P35590)
PAK6 (human) = PAK6 (human) (UniProt Q9NQU5)
STK11 (human) = STK11 (human) (UniProt Q15831)
[2] = test system: EGFR (human), P00533 [G719C]
MAPK4 (human) = MAPK4 (human) (UniProt P31152)
CDKL5 (human) = CDKL5 (human) (UniProt O76039)

Sequence of PRKCH (human) (P24723 whole entry, looked up): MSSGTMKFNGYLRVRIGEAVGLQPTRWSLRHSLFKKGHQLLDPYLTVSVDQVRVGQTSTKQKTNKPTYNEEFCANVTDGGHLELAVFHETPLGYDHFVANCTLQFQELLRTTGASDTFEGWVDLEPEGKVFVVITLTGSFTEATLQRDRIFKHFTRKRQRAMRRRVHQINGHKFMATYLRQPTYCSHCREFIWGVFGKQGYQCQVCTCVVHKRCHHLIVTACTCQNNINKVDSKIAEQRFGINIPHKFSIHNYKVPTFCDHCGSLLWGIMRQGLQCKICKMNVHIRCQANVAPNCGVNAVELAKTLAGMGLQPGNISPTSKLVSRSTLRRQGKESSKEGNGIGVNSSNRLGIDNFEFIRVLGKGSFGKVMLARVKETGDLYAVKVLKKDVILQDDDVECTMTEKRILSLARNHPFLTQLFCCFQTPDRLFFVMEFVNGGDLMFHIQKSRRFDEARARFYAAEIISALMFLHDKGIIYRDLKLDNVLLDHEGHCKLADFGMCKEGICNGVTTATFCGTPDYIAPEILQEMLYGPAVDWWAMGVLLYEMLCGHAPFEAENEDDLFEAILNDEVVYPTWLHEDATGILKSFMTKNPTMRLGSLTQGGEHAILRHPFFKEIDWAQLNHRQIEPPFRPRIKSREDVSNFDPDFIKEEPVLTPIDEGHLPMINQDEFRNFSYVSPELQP
Sequence of AKT2 (human) (P31751 whole entry, looked up): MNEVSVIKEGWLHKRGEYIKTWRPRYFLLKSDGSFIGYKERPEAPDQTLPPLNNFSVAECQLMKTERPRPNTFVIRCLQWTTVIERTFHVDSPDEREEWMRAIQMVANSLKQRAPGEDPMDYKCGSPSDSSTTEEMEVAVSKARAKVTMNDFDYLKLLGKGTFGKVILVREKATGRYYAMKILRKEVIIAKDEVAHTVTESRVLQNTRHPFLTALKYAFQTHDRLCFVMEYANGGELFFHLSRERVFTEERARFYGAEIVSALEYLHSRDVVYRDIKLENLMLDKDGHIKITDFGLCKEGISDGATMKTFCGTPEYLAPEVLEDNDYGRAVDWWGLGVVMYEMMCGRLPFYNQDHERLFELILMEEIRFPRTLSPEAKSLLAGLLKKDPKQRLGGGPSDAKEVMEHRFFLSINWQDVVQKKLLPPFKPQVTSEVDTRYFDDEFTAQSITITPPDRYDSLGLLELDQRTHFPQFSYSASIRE
Sequence of PI4KB (human) (Q9UBF8 whole entry, looked up): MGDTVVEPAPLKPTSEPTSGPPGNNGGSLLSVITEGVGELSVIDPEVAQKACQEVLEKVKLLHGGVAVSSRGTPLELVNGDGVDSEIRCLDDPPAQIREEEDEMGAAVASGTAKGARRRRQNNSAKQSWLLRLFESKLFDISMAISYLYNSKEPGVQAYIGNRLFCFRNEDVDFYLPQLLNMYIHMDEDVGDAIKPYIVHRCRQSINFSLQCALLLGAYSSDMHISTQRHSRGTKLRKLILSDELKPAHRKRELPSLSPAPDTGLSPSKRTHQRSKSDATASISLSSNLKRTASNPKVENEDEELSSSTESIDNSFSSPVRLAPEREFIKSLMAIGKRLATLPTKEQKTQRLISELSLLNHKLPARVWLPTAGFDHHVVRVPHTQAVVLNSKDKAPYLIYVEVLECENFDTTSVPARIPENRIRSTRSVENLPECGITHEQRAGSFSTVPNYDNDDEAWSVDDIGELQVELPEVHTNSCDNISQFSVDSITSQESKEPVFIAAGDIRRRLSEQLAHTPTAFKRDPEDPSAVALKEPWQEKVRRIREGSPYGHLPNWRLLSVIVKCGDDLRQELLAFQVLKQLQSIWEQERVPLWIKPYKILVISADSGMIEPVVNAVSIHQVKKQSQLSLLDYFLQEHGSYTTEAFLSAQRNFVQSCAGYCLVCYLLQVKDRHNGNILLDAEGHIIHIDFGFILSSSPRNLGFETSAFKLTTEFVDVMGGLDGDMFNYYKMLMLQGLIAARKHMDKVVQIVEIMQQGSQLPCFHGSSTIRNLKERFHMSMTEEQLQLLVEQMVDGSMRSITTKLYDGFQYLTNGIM
Sequence of MAP2K4 (human) (P45985 whole entry, looked up): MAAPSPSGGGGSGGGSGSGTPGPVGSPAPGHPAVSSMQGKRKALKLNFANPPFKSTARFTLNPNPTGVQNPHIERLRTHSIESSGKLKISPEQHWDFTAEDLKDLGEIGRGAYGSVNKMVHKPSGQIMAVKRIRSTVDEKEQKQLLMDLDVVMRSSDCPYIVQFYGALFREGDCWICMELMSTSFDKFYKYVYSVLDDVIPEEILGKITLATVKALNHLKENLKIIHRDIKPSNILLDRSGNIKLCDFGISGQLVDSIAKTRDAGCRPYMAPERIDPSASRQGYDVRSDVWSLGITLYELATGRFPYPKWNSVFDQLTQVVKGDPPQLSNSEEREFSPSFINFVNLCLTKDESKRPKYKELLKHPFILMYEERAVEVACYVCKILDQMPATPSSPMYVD
Sequence of SRC (human) (P12931 whole entry, looked up): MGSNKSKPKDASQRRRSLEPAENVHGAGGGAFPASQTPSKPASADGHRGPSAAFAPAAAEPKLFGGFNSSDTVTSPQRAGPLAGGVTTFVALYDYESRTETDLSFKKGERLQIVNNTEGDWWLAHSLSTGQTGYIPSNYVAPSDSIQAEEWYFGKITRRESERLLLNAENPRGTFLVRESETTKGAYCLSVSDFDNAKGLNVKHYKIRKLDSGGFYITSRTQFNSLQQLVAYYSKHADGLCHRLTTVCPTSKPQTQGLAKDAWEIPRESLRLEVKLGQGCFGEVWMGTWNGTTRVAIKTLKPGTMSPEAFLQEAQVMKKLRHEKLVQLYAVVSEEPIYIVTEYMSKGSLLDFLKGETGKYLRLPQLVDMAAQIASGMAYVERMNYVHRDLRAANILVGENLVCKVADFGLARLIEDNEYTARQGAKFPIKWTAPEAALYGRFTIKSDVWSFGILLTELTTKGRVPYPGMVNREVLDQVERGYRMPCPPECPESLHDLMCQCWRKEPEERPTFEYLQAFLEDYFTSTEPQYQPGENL
Sequence of ZAP70 (human) (P43403 whole entry, looked up): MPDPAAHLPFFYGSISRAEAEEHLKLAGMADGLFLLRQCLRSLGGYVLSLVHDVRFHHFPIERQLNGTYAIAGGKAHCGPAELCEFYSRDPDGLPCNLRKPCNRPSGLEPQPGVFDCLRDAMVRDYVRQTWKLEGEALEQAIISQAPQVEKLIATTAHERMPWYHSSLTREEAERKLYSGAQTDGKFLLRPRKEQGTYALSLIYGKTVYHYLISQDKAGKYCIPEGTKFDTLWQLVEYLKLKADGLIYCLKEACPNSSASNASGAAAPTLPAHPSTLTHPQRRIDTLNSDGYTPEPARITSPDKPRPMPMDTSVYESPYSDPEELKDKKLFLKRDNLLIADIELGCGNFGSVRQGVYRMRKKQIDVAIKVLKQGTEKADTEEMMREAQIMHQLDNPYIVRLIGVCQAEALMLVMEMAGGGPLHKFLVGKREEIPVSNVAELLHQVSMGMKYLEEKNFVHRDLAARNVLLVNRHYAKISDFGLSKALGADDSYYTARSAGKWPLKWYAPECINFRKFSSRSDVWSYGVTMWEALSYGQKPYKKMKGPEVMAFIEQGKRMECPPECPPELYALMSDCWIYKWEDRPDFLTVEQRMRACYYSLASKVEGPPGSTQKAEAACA
Sequence of MAPK9 (human) (P45984 whole entry, looked up): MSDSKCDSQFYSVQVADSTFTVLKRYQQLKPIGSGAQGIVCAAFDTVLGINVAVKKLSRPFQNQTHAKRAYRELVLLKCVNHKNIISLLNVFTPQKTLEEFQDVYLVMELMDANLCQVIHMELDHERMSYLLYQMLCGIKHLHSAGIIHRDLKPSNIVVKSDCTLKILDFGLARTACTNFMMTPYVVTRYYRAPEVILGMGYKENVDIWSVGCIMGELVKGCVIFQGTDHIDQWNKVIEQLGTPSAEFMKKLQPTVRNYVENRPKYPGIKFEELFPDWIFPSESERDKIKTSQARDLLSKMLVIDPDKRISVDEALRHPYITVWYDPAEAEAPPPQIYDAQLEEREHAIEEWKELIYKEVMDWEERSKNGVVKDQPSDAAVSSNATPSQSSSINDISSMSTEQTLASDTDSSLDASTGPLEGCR
Sequence of CAMK1D (human) (Q8IU85 whole entry, looked up): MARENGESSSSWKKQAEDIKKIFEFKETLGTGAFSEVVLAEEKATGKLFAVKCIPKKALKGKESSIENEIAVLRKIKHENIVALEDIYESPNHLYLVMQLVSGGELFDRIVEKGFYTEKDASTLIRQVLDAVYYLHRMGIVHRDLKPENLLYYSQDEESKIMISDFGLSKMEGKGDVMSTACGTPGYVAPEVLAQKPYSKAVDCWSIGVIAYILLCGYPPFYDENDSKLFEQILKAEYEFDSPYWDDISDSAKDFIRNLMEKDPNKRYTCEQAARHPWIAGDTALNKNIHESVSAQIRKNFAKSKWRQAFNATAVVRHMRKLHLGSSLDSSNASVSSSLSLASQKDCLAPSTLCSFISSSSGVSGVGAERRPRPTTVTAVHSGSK
Sequence of PRKX (human) (P51817 whole entry, looked up): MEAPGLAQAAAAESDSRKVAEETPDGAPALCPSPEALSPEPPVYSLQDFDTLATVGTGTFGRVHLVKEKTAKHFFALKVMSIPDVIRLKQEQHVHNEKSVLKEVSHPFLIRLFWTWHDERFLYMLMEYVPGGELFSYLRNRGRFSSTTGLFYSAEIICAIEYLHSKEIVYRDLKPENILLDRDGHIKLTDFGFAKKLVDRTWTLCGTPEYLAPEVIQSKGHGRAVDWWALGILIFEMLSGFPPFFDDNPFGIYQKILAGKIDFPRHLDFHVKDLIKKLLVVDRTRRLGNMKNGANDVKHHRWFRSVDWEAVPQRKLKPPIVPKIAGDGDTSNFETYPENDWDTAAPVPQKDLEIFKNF

With `CNC(=O)Nc1ccc(-c2nc(N3CC4CCC(C3)O4)c3cnn(C4CCC5(CC4)OCCO5)c3n2)cc1` the kinase still bound, per cent of control (MAPK8 (human)) was 91%, the kinase still bound, per cent of control (MUSK (human)) was 92% and the kinase still bound, per cent of control (ACVRL1 (human)) was 100%. For the same molecule, the kinase still bound, per cent of control (HIPK2 (human)) was 100%, the kinase still bound, per cent of control (MAP3K5 (human)) was 85% and the kinase still bound, per cent of control (MAPK9 (human)) was 85%. For the same molecule, the kinase still bound, per cent of control (MAP2K4 (human)) was 90%, the kinase still bound, per cent of control (CAMK1D (human)) was 95% and the kinase still bound, per cent of control (ADCK3 (human)) was 86%. The kinase still bound, per cent of control (PRKCQ (human)) was 100%, the kinase still bound, per cent of control (TRPM6 (human)) was 100% and the kinase still bound, per cent of control (PI4KB (human)) was 100%. The kinase still bound, per cent of control (CLK4 (human)) was 88%, the kinase still bound, per cent of control (PHKG1 (human)) was 100% and the kinase still bound, per cent of control (ZAP70 (human)) was 83%. It also gave a kinase still bound, per cent of control (STK17A (human)) of 100%, a kinase still bound, per cent of control (SRC (human)) of 75% and a kinase still bound, per cent of control (TTK (human)) of 100%. It also gave a kinase still bound, per cent of control (PKN2 (human)) of 83%, a kinase still bound, per cent of control (PRKX (human)) of 100% and a kinase still bound, per cent of control (PIK3C2B (human)) of 25%. The kinase still bound, per cent of control (PRKCH (human)) was 91%, the kinase still bound, per cent of control (ROCK1 (human)) was 100% and the kinase still bound, per cent of control (GRK1 (human)) was 100%. For the same molecule, the kinase still bound, per cent of control (BTK (human)) was 90%, the kinase still bound, per cent of control (RET (human)) was 91% and the kinase still bound, per cent of control (AKT2 (human)) was 100%. It also gave a kinase still bound, per cent of control (CLK1 (human)) of 29%, a kinase still bound, per cent of control (FRK (human)) of 68% and a kinase still bound, per cent of control (CAMK2A (human)) of 100%. The kinase still bound, per cent of control [1] was 87%, the kinase still bound, per cent of control (CAMK4 (human)) was 100% and the kinase still bound, per cent of control (PRPF4B (human)) was 70%. The kinase still bound, per cent of control (MAPK10 (human)) was 86%, the kinase still bound, per cent of control (EPHB6 (human)) was 83% and the kinase still bound, per cent of control (TIE1 (human)) was 98%. For the same molecule, the kinase still bound, per cent of control (PAK6 (human)) was 100%, the kinase still bound, per cent of control (STK11 (human)) was 80% and the kinase still bound, per cent of control [2] was 80%. It also gave a kinase still bound, per cent of control (MAPK4 (human)) of 100% and a kinase still bound, per cent of control (CDKL5 (human)) of 79%.
Work on `O=c1[nH]c2ccccc2n1C1CCN(Cc2ccc(-c3nc4cc5[nH]cnc5cc4nc3-c3ccccc3)cc2)CC1` yielded a kinase still bound, per cent of control (MAPK8 (human)) of 79%, a kinase still bound, per cent of control (MUSK (human)) of 100% and a kinase still bound, per cent of control (ACVRL1 (human)) of 100%. The kinase still bound, per cent of control (HIPK2 (human)) was 88%, the kinase still bound, per cent of control (MAP3K5 (human)) was 83% and the kinase still bound, per cent of control (MAPK9 (human)) was 91%. The kinase still bound, per cent of control (MAP2K4 (human)) was 94%, the kinase still bound, per cent of control (CAMK1D (human)) was 76% and the kinase still bound, per cent of control (ADCK3 (human)) was 100%. For the same molecule, the kinase still bound, per cent of control (PRKCQ (human)) was 94%, the kinase still bound, per cent of control (TRPM6 (human)) was 87% and the kinase still bound, per cent of control (PI4KB (human)) was 60%. It also gave a kinase still bound, per cent of control (CLK4 (human)) of 95%, a kinase still bound, per cent of control (PHKG1 (human)) of 100% and a kinase still bound, per cent of control (ZAP70 (human)) of 99%. The kinase still bound, per cent of control (STK17A (human)) was 100%, the kinase still bound, per cent of control (SRC (human)) was 81% and the kinase still bound, per cent of control (TTK (human)) was 100%. The kinase still bound, per cent of control (PKN2 (human)) was 92%, the kinase still bound, per cent of control (PRKX (human)) was 100% and the kinase still bound, per cent of control (PIK3C2B (human)) was 54%. For the same molecule, the kinase still bound, per cent of control (PRKCH (human)) was 69%, the kinase still bound, per cent of control (ROCK1 (human)) was 66% and the kinase still bound, per cent of control (GRK1 (human)) was 100%. For the same molecule, the kinase still bound, per cent of control (BTK (human)) was 100%, the kinase still bound, per cent of control (RET (human)) was 76% and the kinase still bound, per cent of control (AKT2 (human)) was 100%. The kinase still bound, per cent of control (CLK1 (human)) was 100%, the kinase still bound, per cent of control (FRK (human)) was 100% and the kinase still bound, per cent of control (CAMK2A (human)) was 98%. For the same molecule, the kinase still bound, per cent of control [1] was 28%, the kinase still bound, per cent of control (CAMK4 (human)) was 100% and the kinase still bound, per cent of control (PRPF4B (human)) was 81%. The kinase still bound, per cent of control (MAPK10 (human)) was 71%, the kinase still bound, per cent of control (EPHB6 (human)) was 69% and the kinase still bound, per cent of control (TIE1 (human)) was 100%. It also gave a kinase still bound, per cent of control (PAK6 (human)) of 85%, a kinase still bound, per cent of control (STK11 (human)) of 94% and a kinase still bound, per cent of control [2] of 53%. It also gave a kinase still bound, per cent of control (MAPK4 (human)) of 100% and a kinase still bound, per cent of control (CDKL5 (human)) of 86%.

From the kinase profiling compilation of Christmann-Franck et al. (2016)
